# Tests used:
# MDA-MB-231 [1] = assay: Cytotoxicity against human MDA-MB-231 cells after 48 hrs by MTT assay; type: functional, cell-based; conditions: MDA-MB-231, 48 h
# A549 [2] = assay: Cytotoxicity against human A549 cells after 48 hrs by MTT assay; type: functional, cell-based; conditions: A549, 48 h
# HeLa [3] = assay: Cytotoxicity against human HeLa cells after 48 hrs by MTT assay; type: functional, cell-based
# A549 [4] = assay: Cytotoxicity against human A549 cells up to 50 uM after 48 hrs by MTT assay; type: functional, cell-based
# MDA-MB-231 [5] = assay: Cytotoxicity against human MDA-MB-231 cells up to 50 uM after 48 hrs by MTT assay; type: functional, cell-based
# HeLa [6] = assay: Cytotoxicity against human HeLa cells up to 50 uM after 48 hrs by MTT assay; type: functional, cell-based
# MDA-MB-231 [7] = assay: Drug uptake in human MDA-MB-231 cells at 10 uM; type: ADME, cell-based; conditions: mda-mb-231, 10 µM
# MDA-MB-231 [8] = assay: Cytotoxicity against human MDA-MB-231 cells at 20 uM after 48 hrs by MTT assay; type: functional; conditions: MDA-MB-231, 48 h
# MDA-MB-435 [9] = assay: Cytotoxicity against human MDA-MB-435 cells at 20 uM after 48 hrs by MTT assay; type: functional; conditions: MDA-MB-435, 48 h
# MCF7 [10] = assay: Cytotoxicity against human MCF7 cells at 20 uM after 48 hrs by MTT assay; type: functional; conditions: MCF7, 48 h
# MDA-MB-435 [11] = assay: Cytotoxicity against human MDA-MB-435 cells after 48 hrs by MTT assay; type: functional, cell-based; conditions: MDA-MB-435, 48 h
# MCF7 [12] = assay: Cytotoxicity against human MCF7 cells after 48 hrs by MTT assay; type: functional, cell-based; conditions: MCF7, 48 h
SMILES,EC50 (MDA-MB-231 [1]) [µM],EC50 (A549 [2]) [µM],EC50 (HeLa [3]) [µM],inhibition at 20 µM (MDA-MB-231 [8]) [%],inhibition at 20 µM (MDA-MB-435 [9]) [%],inhibition at 20 µM (MCF7 [10]) [%],other results
CO[C@H]1O[C@H](COc2ccc(C3CCCCC3)cc2)[C@@H](O)[C@H](O)[C@H]1Oc1cccc2c1CCCC2,37,28,25,–,–,–,–
COc1ccc(OC[C@H]2O[C@H](OC)[C@H](Oc3ccc(OC4CCCCC4)cc3)[C@@H](O)[C@@H]2O)cc1OC,–,–,–,–,–,–,EC50 (A549 [4]): Not Active; EC50 (MDA-MB-231 [5]): Not Active; EC50 (HeLa [6]): Not Active
CO[C@H]1O[C@H](COc2ccc(C3CCCCC3)cc2)[C@@H](O)[C@H](O)[C@H]1Oc1ccc(OC2CCCCC2)cc1,14,12,10,–,–,–,Drug uptake (MDA-MB-231 [7]): Not Active
CO[C@@H]1O[C@H](COc2ccccc2C(C)C)[C@@H](O)[C@H](O)[C@H]1Oc1ccc(OC2CCCCC2)cc1,44,41,42,–,–,–,–
CO[C@H]1O[C@H](COc2ccccc2C(C)C)[C@@H](O)[C@H](O)[C@H]1Oc1ccc(OC2CCCCC2)cc1,36,33,47,–,–,–,–
CO[C@@H]1O[C@H](COc2cccc(C(C)C)c2)[C@@H](O)[C@H](O)[C@H]1Oc1ccc(OC2CCCCC2)cc1,40,41,39,–,–,–,–
CO[C@H]1O[C@H](COc2cccc(C(C)C)c2)[C@@H](O)[C@H](O)[C@H]1Oc1ccc(OC2CCCCC2)cc1,38,30,28,–,–,–,–
CO[C@H]1O[C@H](COc2ccccc2)[C@@H](O)[C@H](O)[C@H]1Oc1ccc2c(c1)-c1ccccc1S2(=O)=O,–,–,–,2,4,7,–
CO[C@@H]1O[C@H](COc2ccccc2)[C@@H](O)[C@H](O)[C@H]1Oc1ccc2c(c1)-c1ccccc1S2(=O)=O,–,–,–,-16,0,7,–
CO[C@H]1O[C@H](COc2ccc(-c3ccccc3)cc2)[C@@H](O)[C@H](O)[C@H]1Oc1ccc2c(c1)-c1ccccc1S2(=O)=O,–,–,–,29,12,15,–
CO[C@H]1O[C@H](COc2cccc3c2CCCC3)[C@@H](O)[C@H](O)[C@H]1Oc1ccc2c(c1)-c1ccccc1S2(=O)=O,–,–,–,-8,-5,4,–
COc1ccc(OC[C@H]2O[C@@H](OC)[C@H](Oc3ccc(OC4CCCCC4)cc3)[C@@H](O)[C@@H]2O)cc1OC,–,–,–,–,–,–,EC50 (A549 [4]): Not Active; EC50 (MDA-MB-231 [5]): Not Active; EC50 (HeLa [6]): Not Active
CO[C@H]1O[C@H](COc2ccc3c(c2)CCCC3)[C@@H](O)[C@H](O)[C@H]1Oc1ccc2c(c1)-c1ccccc1S2(=O)=O,–,–,–,30,17,2,–
CO[C@@H]1O[C@H](COc2ccc3c(c2)CCCC3)[C@@H](O)[C@H](O)[C@H]1Oc1ccc2c(c1)-c1ccccc1S2(=O)=O,–,–,–,14,-4,7,–
CO[C@H]1O[C@H](COc2ccc(-c3ccccc3)cc2)[C@@H](O)[C@H](O)[C@H]1Oc1ccccc1C(C)C,34,33,29,–,–,–,–
CO[C@H]1O[C@H](COc2ccc(-c3ccccc3)cc2)[C@@H](O)[C@H](O)[C@H]1Oc1ccccc1,–,36,33,–,–,–,EC50 (A549 [4]): Not Active
CO[C@@H]1O[C@H](COc2ccc(-c3ccccc3)cc2)[C@@H](O)[C@H](O)[C@H]1Oc1cccc(C(C)C)c1,35,35,32,–,–,–,–
CO[C@H]1O[C@H](COc2ccc(-c3ccccc3)cc2)[C@@H](O)[C@H](O)[C@H]1Oc1cccc(C(C)C)c1,30,32,35,–,–,–,–

SMILES,EC50 (MDA-MB-231 [1]) [µM],EC50 (A549 [2]) [µM],EC50 (HeLa [3]) [µM],inhibition at 20 µM (MDA-MB-231 [8]) [%],inhibition at 20 µM (MDA-MB-435 [9]) [%],inhibition at 20 µM (MCF7 [10]) [%],other results
CO[C@H]1O[C@H](COc2ccc(-c3ccccc3)cc2)[C@@H](O)[C@H](O)[C@H]1Oc1ccc(C(C)C)cc1,31,32,19,–,–,–,–
CO[C@@H]1O[C@H](COc2ccc(OC3CCCCC3)cc2)[C@@H](O)[C@H](O)[C@H]1Oc1ccc(C(C)C)cc1,35,32,26,–,–,–,–
CO[C@H]1O[C@H](COc2ccc(OC3CCCCC3)cc2)[C@@H](O)[C@H](O)[C@H]1Oc1ccc(C(C)C)cc1,25,27,18,–,–,–,–
COc1cc(OC)cc(OC[C@H]2O[C@H](OC)[C@H](Oc3ccc(OC4CCCCC4)cc3)[C@@H](O)[C@@H]2O)c1,–,–,–,–,–,–,EC50 (A549 [4]): Not Active; EC50 (MDA-MB-231 [5]): Not Active; EC50 (HeLa [6]): Not Active
CO[C@H]1O[C@H](COc2ccc(C3CCCCC3)cc2)[C@@H](OC)[C@H](OC)[C@H]1Oc1ccc(OC2CCCCC2)cc1,–,–,–,–,–,–,EC50 (A549 [4]): Not Active; EC50 (MDA-MB-231 [5]): Not Active; EC50 (HeLa [6]): Not Active
CO[C@@H]1O[C@H](COc2ccc(OC3CCCCC3)cc2)[C@@H](O)[C@H](O)[C@H]1Oc1ccc(OC2CCCCC2)cc1,26,25,14,–,–,–,–
CO[C@H]1O[C@H](COc2ccc(OC3CCCCC3)cc2)[C@@H](O)[C@H](O)[C@H]1Oc1ccc(OC2CCCCC2)cc1,20,18,14,–,–,–,–
CO[C@@H]1O[C@H](COc2ccc3c(c2)CCCC3)[C@@H](O)[C@H](O)[C@H]1Oc1cccc(C(C)C)c1,–,–,–,–,–,–,EC50 (A549 [4]): Not Active; EC50 (MDA-MB-231 [5]): Not Active; EC50 (HeLa [6]): Not Active
CO[C@H]1O[C@H](COc2ccc3c(c2)CCCC3)[C@@H](O)[C@H](O)[C@H]1Oc1cccc(C(C)C)c1,–,40,33,–,–,–,EC50 (A549 [4]): Not Active
CO[C@H]1O[C@H](COc2ccc(C3CCCCC3)cc2)[C@@H](O)[C@H](O)[C@H]1Oc1ccc2c(c1)CCCC2,25,17,29,–,–,–,–
CO[C@@H]1O[C@H](COc2ccc3c(c2)CCCC3)[C@@H](O)[C@H](O)[C@H]1Oc1ccc(OC2CCCCC2)cc1,–,–,–,0,1,14,–
CO[C@@H]1O[C@H](COc2ccc(-c3ccccc3)cc2)[C@@H](O)[C@H](O)[C@H]1Oc1ccc(OC2CCCCC2)cc1,36,–,–,64,30,51,EC50 (MDA-MB-435 [11]): 26 µM; EC50 (MCF7 [12]): 18 µM
CO[C@H]1O[C@H](COc2cccc3c2CCCC3)[C@@H](O)[C@H](O)[C@H]1Oc1ccc(OC2CCCCC2)cc1,–,–,–,-8,-1,3,–
CO[C@H]1O[C@H](COc2ccccc2)[C@@H](O)[C@H](O)[C@H]1Oc1ccc(OC2CCCCC2)cc1,–,–,–,-11,-8,-9,–
CO[C@H]1O[C@H](COc2ccc3c(c2)CCCC3)[C@@H](O)[C@H](O)[C@H]1Oc1ccc(OC2CCCCC2)cc1,20,–,–,24,16,45,EC50 (MDA-MB-435 [11]): 26 µM; EC50 (MCF7 [12]): 17 µM
CO[C@@H]1O[C@H](COc2ccccc2)[C@@H](O)[C@H](O)[C@H]1Oc1ccc(OC2CCCCC2)cc1,–,–,–,-9,14,-5,–
C=CCO[C@@H]1[C@@H](Oc2ccc(OC3CCCCC3)cc2)[C@@H](OC)O[C@H](COc2ccc(C3CCCCC3)cc2)[C@H]1OCC=C,–,–,–,–,–,–,EC50 (A549 [4]): Not Active; EC50 (MDA-MB-231 [5]): Not Active; EC50 (HeLa [6]): Not Active
CO[C@H]1O[C@H](COc2ccc(C3CCCCC3)cc2)[C@@H](OCc2ccccc2)[C@H](OCc2ccccc2)[C@H]1Oc1ccc(OC2CCCCC2)cc1,–,–,–,–,–,–,EC50 (A549 [4]): Not Active; EC50 (MDA-MB-231 [5]): Not Active; EC50 (HeLa [6]): Not Active
